Experimental data taken from patent US12281299B2, “Control of nitrogen fixation in rhizobia that associate with cereals” (Massachusetts Institute of Technology, priority 2019, dated 2025).

Key:
[1] = test system: P. protegens Pf-5; assay: Genetic part characterization for P. protegens (promoters, RBSs, terminators, inducible systems; fluorescence reporter, flow cytometry); assay type: cell-based, Pseudomonas protegens
Description: Construction and characterization genetic parts for P. protegens. Genetic part libraries were built on a pRO1600-ori plasmid pMR-2 using Gibson assembly (New England Biolabs, Cat # E2611). The fluorescence proteins, GFPmut3b and mRFP1 were used as reporters. The Anderson promoter library on the BioBricks Registry were utilized for the characterization of constitutive promoters (FIGS. 11A-11C). The following combinations of cognate regulators and inducible promoters were characterized. IPTG inducible LacI-Ptac, DAPG inducible PhlF-PPhl, aTc inducible TetR-PTet, 3OC6HSL inducible LuxR-PLux, arabinose inducible AraC-PBAD, cuminic acid inducible CymR-PCym, and naringenin inducible FdeR-PFde were optimized (FIGS. 15A-15C). […] RBS library for GFP was designed using the RBS library calculator at the highest-resolution mode, and the 3′ end of the 16S rRNA sequences were adjusted according to the species (3′-ACCTCCTTA-5′ for P. protegens Pf-5). Terminators for T7 RNAP were characterized by placing a terminator between two fluorescence reporters expressed from a single T7 wild-type promoter located upstream of the first fluorescence protein GFP. The expression of the two fluorescence proteins is enabled by an IPTG-inducible T7 RNAP expression system of the controller strain MR7 (FIGS. 13A-13B). All genetic parts for P. protegens Pf-5 were characterized as follows.

[2] = test system: R. sp. IRBG74; assay: Nitrogenase assays (Rhizobia strains), acetylene reduction; assay type: cell-based, Rhizobium sp.; settings: DAPG-inducible T7 RNAP driving v3.2 refactored pathway in R. sp. IRBG74
Procedure: Nitrogenase assays (Rhizobia strains). […] 5 μl of overnight cultures was diluted into 500 μl of UMS medium with 30 mM succinate, 10 mM sucrose, and 10 mM NH4Cl and appropriate antibiotics in 96-deepwell and incubated for 24 h at 30° C., 900 rpm in a Multitron incubator. Cultures were diluted to an OD600 of 0.4 into 2 mL of UMS medium plus 30 mM succinate and 10 mM sucrose supplemented with appropriate antibiotics, 1.43 mM serine and an inducer (if necessary) in 10 mL glass vials with PTFE-silicone septa screw caps. Headspace in the vials was replaced with 99% argon and 1% oxygen gas using a vacuum manifold. Acetylene was injected to 10% (vol/vol) into each culture vial to begin the reaction. […]
Ethylene quantification. Ethylene production was analyzed by gas chromatography using an Agilent 7890A GC system (Agilent Technologies, Inc., CA USA) equipped with a PAL headspace autosampler and flame ionization detector as follows. […] Acetylene and ethylene were detected at 3.0 min and 3.7 min after injection, respectively. Ethylene production was quantified by integrating the 3.7 min peak using Agilent GC/MSD ChemStation Software.
The bacteria were grown in appropriate media, including antibiotics, and then evaluated for nitrogenase activity using an acetylene reduction assay (see Methods and Materials Section). […]

[3] = test system: nifH promoter; assay: nifH expression analysis (PnifH-sfgfp, flow cytometry), A. caulinodans; assay type: cell-based, Azorhizobium caulinodans; settings: nifA and rpoN under IPTG control, condition used for nitrogen fixation
Procedure: Flow cytometry. Cultures with fluorescence proteins were analyzed by flow cytometry using a BD Biosciences LSRII Forterssa analyzer with a 488 nm laser and 510/20-nm band pass filter for GFP and a 561 nm laser and 610/20 nm band pass filter for mCherry and mRFP1. Cells were diluted into 96-well plates containing phosphate buffered saline solution (PBS) supplemented with 2 mg/mL kanamycin after incubation. Cells were collected over 20,000 events which were gated using forward and side scatter to remove background events using FlowJo (TreeStar Inc., Ashland, Oreg.). The median fluorescence from cytometry histograms was calculated for all samples. The median autofluorescence was subtracted from the median fluorescence and reported as the fluorescence value in arbitrary unit (au).
nifH expression analysis. Complementation of NifA was tested using plasmid pMR-128 to 130 that contains the sfgfp fused to the nifH promoter in the A. caulinodans ΔnifA mutant. The inducible NifA/RpoN expression was provided by the plasmid pMR-121 into which sfgfp driven by the nifH promoter was added to analyze MN promoter activity, yielding pMR-131 (FIG. 29). […] Each of the plasmids was mobilized into the A. caulinodans ΔnifA mutant, which was grown following the same protocol as used for nitrogenase activity (described herein). […]

[4] = test system: P. protegens Pf-5; assay: Characterization of genomically integrated controllers (T7 promoter GFP reporter), P. protegens Pf-5; assay type: cell-based, Pseudomonas protegens; settings: P. protegens Pf-5 controller strain MR7, reporter plasmid pMR-80
Description: Genomic integration and characterization of controllers. The mini-Tn7 insertion system was used to introduce a controller into the genome of P. protegens Pf-5. The IPTG-inducible T7 RNAP expression system and a tetracycline resistant marker tetA was placed between two Tn7 ends (Tn7L and Tn7R). The controller plasmid pMR-85 was introduced into P. protegens Pf-5 by double transformation with pTNS3 encoding the TnsABCD transposase. A genomically-integrated controller located 25 bp downstream of the stop codon of glmS was confirmed by PCR and sequencing. A markerless insertion method using homologous recombination was employed in R. sp. IRBG74. A controller encoding inducible T7 RNAP system flanked by two homology fragments that enables the replacement of recA was cloned into a suicide plasmid. These controller plasmids (IPTG-inducible, pMR82-84; DAPG-inducible, pMR85) in E. coli was mobilized into R. sp. IRBG74 MR18 (AhsdR. Anif) by triparental mating, generating the controller strains (MR19, 20, 21 and 22, respectively). The controller integration in the genome was confirmed by gentamicin sensitivity and diagnostic PCR. All controllers were characterized in a manner identical to that described in genetic part characterization.

[5] = test system: E. coli Marionette MG1655; settings: 1 mM choline-Cl
Procedure: The reporter plasmid pMR-120 in which gfpmut3b is fused to the PT7(P2) promoter (FIGS. 28A-28C) was co-transformed to analyze the response functions of each of the 12 T7 RNAP controller plasmids. To characterize controllers, single colonies were inoculated into 1 ml LB supplemented with antibiotics in 96-deepwell plates (USA Scientific, Cat #18962110) and grown overnight at 30° C., 900 rpm in a Multitron incubator (INFORS HT, MD). 0.5 μl of overnight cultures was diluted into 200 μl of LB with antibiotics and appropriate inducers in 96-well plates (Thermo Scientific, Cat #12565215) and incubated for 6 h at 30° C., 1,000 rpm in an ELMI DTS-4 shaker (ELMI, CA). After growth, 4 μl of culture sample was diluted into 150 μl PBS with 2 mg/mL kanamycin for flow cytometry analysis.
Flow cytometry. Cultures with fluorescence proteins were analyzed by flow cytometry using a BD Biosciences LSRII Forterssa analyzer with a 488 nm laser and 510/20-nm band pass filter for GFP and a 561 nm laser and 610/20 nm band pass filter for mCherry and mRFP1. […] The median fluorescence from cytometry histograms was calculated for all samples. The median autofluorescence was subtracted from the median fluorescence and reported as the fluorescence value in arbitrary unit (au).

CC(=O)c1c(O)cc(O)c(C(C)=O)c1O [DAPG, 2,4-Diacetylphloroglucinol, reference compound]
function of inducible system ([1]; P. protegens Pf-5, pRO1600 plasmid): functional | induction of nitrogenase activity [2]: 9 fold

CC(C)S[C@@H]1O[C@H](CO)[C@H](O)[C@H](O)[C@H]1O [IPTG, Isopropyl-beta-D-thiogalactoside]
dynamic range of response function from the nifH promoter [3]: 45 fold | expression range of IPTG-inducible system ([1]; Ptac promoter and Lad (Q18M/A47V/F161Y) protein, 1 mM IPTG, P. protegens Pf-5): 110 fold | activation of GFP expression by the T7 promoter [4]: 96 fold

C[N+](C)(C)CCO.[Cl-] [choline-Cl, Choline chloride]
inducibility of the T7 promoter by controller plasmid [5]: not inducible
